Reference: patent publication US7371766B2, “Curcumin analogs with anti-tumor and anti-angiogenic properties” (Emory University, priority 1999, dated 2008)
Read-outs that look alike come from different tables or passages of the source.

Tests used:
[1] = system: Tissue Factor (TF) production by human melanoma cell line RPMI-7951; test: TF ELISA, RPMI-7951; format: cell-based
Protocol: (§1) IMUBIND Tissue Factor ELISA Kit (American Diagnostica Inc, Greenwich, Conn.) was used to determine TF concentration in each sample. The ELISA was carried out according to manufacturer's procedure.

[2] = system: Vascular Endothelial Growth Factor (VEGF) production by human prostate cancer cell line DU-145; test: VEGF ELISA, DU-145; format: cell-based; details: for VEGF (% of DMSO): DMSO = 100%
[3] = system: Vascular Endothelial Growth Factor (VEGF) production by human prostate cancer cell line PC-3; test: VEGF ELISA, PC-3; format: cell-based; details: for VEGF (% of DMSO): DMSO = 100%
[4] = system: Tissue Factor (TF) production by human prostate cancer cell line DU-145; test: TF ELISA, DU-145; format: cell-based; details: 20 μM; for TF (% of DMSO): DMSO = 100%; for TF: mean of triplicate and S.D., DMSO 7699 ± 406
Protocol: (§2) Cells were treated with 1% Triton X-100 in PBS and left overnight at 4° C. overnight to solubilize TF. […] IMUBIND Tissue Factor ELISA Kit (American Diagnostica Inc, Greenwich, Conn.) was used to determine TF concentration in each sample. The ELISA was carried out according to manufacturer's procedure.

[5] = system: Tissue Factor (TF) production by human prostate cancer cell line PC-3; test: TF ELISA, PC-3; format: cell-based; details: 20 μM; for TF (% of DMSO): DMSO = 100%; for TF: mean of triplicate and S.D., DMSO 203 ± 6
Protocol: as §2

[6] = system: Tissue Factor (TF) production by human breast cancer cell line MDA-MB-231; test: TF ELISA, MDA-MB-231; format: cell-based; details: 0.5 μM
Protocol: as §1

RPMI 7951 = test: Emory Laboratory Cell Screen, Neutral Red, RPMI 7951; format: cell-based, human; details: RPMI 7951, Melanoma, 72 hours, read-out: Median Growth Inhibitory Concentration (GI50)
Protocol: (§3) Human tumor and endothelial cell lines were treated for 72 hours with compounds at a minimum of four concentrations between 0.1 μM-40 μM. Neutral Red assay was used to calculate cell viability.

MDA-MB-231 = test: Emory Laboratory Cell Screen, Neutral Red, MDA-MB-231; format: cell-based, human; details: MDA-MB-231, Breast Cancer, 72 hours, read-out: Median Growth Inhibitory Concentration (GI50)
Protocol: as §3

MDA-MB-435 = test: Emory Laboratory Cell Screen, Neutral Red, MDA-MB-435; format: cell-based, human; details: MDA-MB-435, Breast Cancer, 72 hours, read-out: Median Growth Inhibitory Concentration (GI50)
Protocol: as §3

HUVECS = test: Emory Laboratory Cell Screen, Neutral Red, HUVECS; format: cell-based, human; details: 72 hours, read-out: Median Growth Inhibitory Concentration (GI50)
Protocol: as §3

[7] = system: Human tumor and endothelial cell lines; test: Emory Laboratory Cell Screen, mean over cell lines; format: cell-based; details: Mean over the Emory cell lines, 72 hours, read-out: Median Growth Inhibitory Concentration (GI50), Mean
Protocol: as §3

[8] = system: Vascular Endothelial Growth Factor (VEGF) production by human melanoma cell line RPMI-7951; test: VEGF ELISA, RPMI-7951; details: for activity at 5 µM / activity at 20 µM: Homo sapiens, RPMI-7951, 72 h, read-out: VEGF; for VEGF ELISA / VEGF: RPMI-7951; for VEGF ELISA: DMSO control 3713
Protocol: RPMI-795 1, MDA-MB-231 and MDA-MB-435 cell lines were cultured in MEM-alpha medium (GIBCO-BRL, Long Island, N.Y.) containing 10% fetal bovine serum (RPMI-7951, MDA-MB-231) or 5% FBS (MDA-MB-435) at 37° C. and under 5% CO2/95% air. […] The cells were cultured in 48 well plates in all of the experiments described.
A VEGF enzyme-linked immunosorbent assay (ELISA) was utilized to determine the effect of the compounds of the present invention on VEGF production of a variety of human cancer cell lines. For the VEGF assay, cells were plated at a concentration of 80,000 cells/well and cultured overnight. Compounds or vehicle (DMSO 0.1%) were then added and the plates were incubated for 72 hours. Supernatant was then collected from each well and frozen in a −80° C. freezer until needed. Cell viability was determined by Neutral Red Assay. VEGF ELISA Kit (R & D, Minneapolis, Minn.) was used to determine the amount of VEGF in the culture supernatants. The ELISA was carried out according to the manufacturer's procedure.

RPMI-7951 human melanoma = test: Neutral Red Assay, cell viability, RPMI-7951; details: for viability at 5 µM / viability at 20 µM: Homo sapiens; for Neutral Red Uptake, % / Cell Viability: RPMI-7951; for Neutral Red Uptake, %: 72 hours; for Cell Viability: DMSO = 100
[9] = Table 5, 5 μM, DMSO control 7054
[10] = 20 μM, mean of triplicate and S.D., DMSO 18760 ± 2633
[11] = Table 4, 20 μM, mean of triplicate and S.D.
[12] = 20 μM, mean of triplicate and S.D., DMSO 2103 ± 100
[13] = 5 μM, DMSO control 4197 (EF-25: 1045)
[14] = RPMI-7951, 72 h, read-out: Neutral Red Uptake, %
[15] = RPMI-7951, read-out: Cell Viability

Row | SMILES | TF ([1]; 5 μM, DMSO = 100) [%] | VEGF (% of DMSO) ([2]; 20 μM) | VEGF [2, 10] [pg/mL] | VEGF ([2]; Table 4, 20 μM, DMSO = 100) [%] | VEGF [2, 11] [pg/mL] | VEGF (% of DMSO) ([3]; 20 μM) | VEGF [3, 12] [pg/mL] | VEGF ([3]; Table 4, 20 μM, DMSO = 100) [%] | VEGF [3, 11] [pg/mL] | TF (% of DMSO) [4] | TF [4] [pg/mL] | TF (% of DMSO) [5] | TF [5] [pg/mL] | VEGF ELISA ([8]; 5 μM) [pg/ml/well] | VEGF [8, 13] [pg/mL] | VEGF ELISA ([8]; 20 μM) [pg/ml/well] | VEGF ([8]; 20 μM, DMSO control 4197) [pg/mL] | GI50 (RPMI 7951) [µM] | GI50 (HUVECS) [µM] | GI50 [7] [µM] | other results
1 | O=C(C=Cc1ccccc1O)C=Cc1ccccc1O [EF2, 1,5-Bis(2-hydroxyphenyl)penta-1,4-dien-3-one] | 82 | (40%) | 7516 ± 1915 | 40 | 7516 ± 1915 | (1%) | 26 ± 44 | 1 | 26 ± 44 | (72%) | 5540 ± 364 | (36%) | 73 ± 10 | 1295 | 1522 | 84 | 0 | – | – | – | TF ELISA ([1]; 5 μM, DMSO control 7054): 1009 pg/ml/well; TF ([1]; 20 μM, DMSO = 100): 14%; TF [1, 9]: 5780 pg/mL; TF ([1]; Table 5, 20 μM, DMSO control 7054): 1009 pg/mL; TF ([6]; DMSO = 100): 82%; TF ([6]; DMSO control 45753): 37697 pg/mL; GI50 (RPMI 7951; Homo sapiens): 0.8 µM; GI50 (MDA-MB-231; Homo sapiens): 1.5 µM; GI50 (MDA-MB-435; Homo sapiens): 3.3 µM; GI50 (HUVECS; Homo sapiens, HUVEC): 1.7 µM; GI50 ([7]; Homo sapiens, Endothelial cell): 1.8 µM; activity at 5 µM [8]: 36%; activity at 20 µM [8]: 0%; viability at 5 µM (RPMI-7951 human melanoma; [14]): 46%; viability at 20 µM (RPMI-7951 human melanoma; [14]): 7%; viability at 5 µM (RPMI-7951 human melanoma; [15]): 68%; viability at 20 µM (RPMI-7951 human melanoma; [15]): 42%
2 | O=C(C=Cc1ccc(O)cc1)C=Cc1ccc(O)cc1 [EF1, 1,5-Bis(4-hydroxyphenyl)penta-1,4-dien-3-one] | – | (105%) | 19616 ± 4624 | 105 | 19616 ± 4624 | (15%) | 325 ± 75 | 15 | 325 ± 75 | (167%) | 12879 ± 149 | (53%) | 107 ± 9 | 1923 | 2573 | 234 | 0 | – | – | – | activity at 5 µM [8]: 61%; activity at 20 µM [8]: 0%; viability at 5 µM (RPMI-7951 human melanoma; [14]): 92%; viability at 20 µM (RPMI-7951 human melanoma; [14]): 8%; viability at 5 µM (RPMI-7951 human melanoma; [15]): 98%; viability at 20 µM (RPMI-7951 human melanoma; [15]): 43%
3 | CC(=O)Oc1ccccc1C=CC(=O)C=Cc1ccccc1OC(C)=O [MD286] | – | – | – | – | – | – | – | – | – | – | – | – | – | – | – | – | – | 1 | 2.3 | 1.7 | –
4 | COc1ccc(/C=C/C(=O)/C=C/c2ccc(OC)c(OC)c2)cc1OC [MD6] | 25 | (98%) | 18428 ± 3377 | 98 | 18428 ± 3377 | (87%) | 1820 ± 283 | 87 | 1820 ± 283 | – | – | – | – | 2826 | 3200 | 273 | 30 | 1.9 | 3.8 | 2.9 | TF ([1]; 1 μM, DMSO = 100): 91%; TF ([1]; 1 μM, DMSO control 7054): 6400 pg/mL; TF ELISA ([1]; 5 μM, DMSO control 7054): 1753 pg/ml/well; TF [1, 9]: 1753 pg/mL; VEGF ([8]; 5 μM, DMSO = 100): 76%; VEGF ([8]; 20 μM, DMSO = 100): 1%; Neutral Red Uptake, % (RPMI-7951 human melanoma; 5 μM): 97 % of control; Cell Viability (RPMI-7951 human melanoma; 5 μM): 101%; Neutral Red Uptake, % (RPMI-7951 human melanoma; 20 μM): 6 % of control; Cell Viability (RPMI-7951 human melanoma; 20 μM): 42%
5 | O=C(C=Cc1cccc(O)c1)C=Cc1cccc(O)c1 [EF3, 1,5-Bis(3-hydroxyphenyl)penta-1,4-dien-3-one] | – | (138%) | 25901 ± 620 | 149 | 25901 ± 620 | (44%) | 917 ± 261 | 44 | 917 ± 261 | (87%) | 6687 ± 188 | (69%) | 140 ± 8 | 2092 | 2827 | 230 | 0 | – | – | – | activity at 5 µM [8]: 67%; activity at 20 µM [8]: 0%; viability at 5 µM (RPMI-7951 human melanoma; [14]): 77%; viability at 20 µM (RPMI-7951 human melanoma; [14]): 8%; viability at 5 µM (RPMI-7951 human melanoma; [15]): 88%; viability at 20 µM (RPMI-7951 human melanoma; [15]): 43%
6 | CN1CC(=Cc2ccccc2O)C(=O)C(=Cc2ccccc2O)C1 [EF34, 3,5-Bis(2-hydroxybenzylidene)1-methyl4-piperidone] | – | – | – | – | – | – | – | – | – | – | – | – | – | – | – | – | – | – | – | – | GI50 (MDA-MB-231; Homo sapiens): 0.8 µM; GI50 ([7]; Homo sapiens, Endothelial cell): 0.8 µM
7 | COc1cc(C=C2CCCC(=Cc3ccc(O)c(OC)c3)C2=O)ccc1O [MD10] | 25 | (42%) | 7830 ± 2262 | 42 | 7830 ± 2262 | (29%) | 611 ± 248 | 29 | 611 ± 248 | (76%) | 5886 ± 332 | (0%) | 0 ± 0 | 1585 | 1866 | 315 | 0 | 2.2 | 14 | 8.1 | TF ([1]; 1 μM, DMSO = 100): 113%; TF ([1]; 1 μM, DMSO control 7054): 7966 pg/mL; TF ELISA ([1]; 5 μM, DMSO control 7054): 1793 pg/ml/well; TF [1, 9]: 1793 pg/mL; VEGF ([8]; 5 μM, DMSO = 100): 44%; VEGF ([8]; 20 μM, DMSO = 100): 0%; Neutral Red Uptake, % (RPMI-7951 human melanoma; 5 μM): 82 % of control; Cell Viability (RPMI-7951 human melanoma; 5 μM): 91%; Neutral Red Uptake, % (RPMI-7951 human melanoma; 20 μM): 6 % of control; Cell Viability (RPMI-7951 human melanoma; 20 μM): 42%
8 | COc1cc(C=C2CSCC(=Cc3ccc(O)c(OC)c3)C2=O)ccc1O [MD283] | – | – | – | – | – | – | – | – | – | – | – | – | – | – | – | – | – | 1.4 | 3.1 | 2.1 | GI50 (MDA-MB-231): 1.8 µM; GI50 (MDA-MB-435): 1.9 µM
